Source: article PMC6152224 (Molecules : A Journal of Synthetic Chemistry and Natural …, 2017)
Where a name gives a salt, the structure may show the parent alone. Read-outs that look alike come from different tables or passages of the source.

Assays:
ACHN cell line = assay: cells; assay type: cell-based, human; conditions: read-out: IC50 ± SEM ACHN
[1] = Experimentally determined physicochemical values with Sirius T3 device
in vitro = conditions: PAMPA, pH 7.4
hAChE = molecular target: T1, hAChE (Homo sapiens, UniProt P22303); assay: Kinetic study of AChE inhibition (Lineweaver-Burk, nonlinear regression); assay type: biochemical
T1 construct: purchased Sigma-Aldrich (Prague, Czech Republic)
T1 sequence (P22303 32-614): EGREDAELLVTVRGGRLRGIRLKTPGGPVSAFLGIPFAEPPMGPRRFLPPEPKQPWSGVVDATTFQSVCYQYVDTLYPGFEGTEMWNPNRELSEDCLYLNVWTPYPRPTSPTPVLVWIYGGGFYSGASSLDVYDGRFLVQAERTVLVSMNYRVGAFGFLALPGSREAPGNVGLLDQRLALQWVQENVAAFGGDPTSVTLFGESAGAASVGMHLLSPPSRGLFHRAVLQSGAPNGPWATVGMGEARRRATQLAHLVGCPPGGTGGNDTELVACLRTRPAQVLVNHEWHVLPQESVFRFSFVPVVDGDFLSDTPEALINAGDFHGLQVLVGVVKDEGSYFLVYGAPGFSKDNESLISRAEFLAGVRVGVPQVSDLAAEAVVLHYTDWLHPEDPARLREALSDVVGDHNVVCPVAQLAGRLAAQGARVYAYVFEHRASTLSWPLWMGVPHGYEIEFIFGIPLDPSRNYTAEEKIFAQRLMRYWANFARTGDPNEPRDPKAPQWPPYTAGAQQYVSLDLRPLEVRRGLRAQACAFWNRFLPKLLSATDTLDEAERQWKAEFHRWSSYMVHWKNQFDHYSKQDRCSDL

HepG2 cell line = assay: cells; assay type: cell-based, human; conditions: read-out: IC50 ± SEM HepG2
SH-SY5Y cell line = assay: cells; assay type: cell-based, human; conditions: read-out: IC50 ± SEM SH-SY5Y
[2] = molecular target: T2, human plasmatic BChE (hBChE) (Homo sapiens, UniProt P06276); assay: In vitro anti-cholinesterase assay (modified Ellman's method), hBChE; assay type: biochemical; conditions: mean of at least three experiments; read-out: IC50 ± SEM hBChE
T2 construct: human plasmatic BChE (hBChE, E.C. 3.1.1.8, purchased from Sigma-Aldrich); purchased Sigma-Aldrich (Prague, Czech Republic); host or cells: human plasma
T2 sequence (P06276 29-602): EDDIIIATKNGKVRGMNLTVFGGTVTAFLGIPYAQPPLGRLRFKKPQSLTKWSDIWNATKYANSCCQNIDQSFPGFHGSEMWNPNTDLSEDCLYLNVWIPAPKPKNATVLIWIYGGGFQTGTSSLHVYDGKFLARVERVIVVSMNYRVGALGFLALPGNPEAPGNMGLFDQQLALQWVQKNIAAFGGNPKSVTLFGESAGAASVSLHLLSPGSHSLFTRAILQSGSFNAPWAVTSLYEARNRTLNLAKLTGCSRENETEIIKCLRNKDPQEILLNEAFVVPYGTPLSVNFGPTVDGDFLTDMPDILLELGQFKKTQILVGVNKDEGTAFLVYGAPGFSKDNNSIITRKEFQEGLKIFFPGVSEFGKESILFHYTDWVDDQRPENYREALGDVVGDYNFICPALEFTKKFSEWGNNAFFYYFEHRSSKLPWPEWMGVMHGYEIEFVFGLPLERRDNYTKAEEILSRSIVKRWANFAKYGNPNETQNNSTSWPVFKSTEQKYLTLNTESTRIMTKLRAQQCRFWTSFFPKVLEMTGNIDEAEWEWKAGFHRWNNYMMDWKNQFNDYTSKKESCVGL

[3] = PAMPA; taken from ref 52, 53; cited from earlier work
hBChE = conditions: literature value; cited from earlier work
[4] = PAMPA, pH 7.4
AChE = test system: AChE; design: method as in PMID 23480140; conditions: versus THA and (−)-huperzine A; cited from earlier work
[5] = test system: 3-nitropropionic acid (3-NP) intoxication; conditions: 3-NP-induced assay, HupY pretreatment; cited from earlier work
[6] = test system: HepG2, ACHN and SH-SY5Y cell lines; assay: cells; conditions: Homo sapiens, 24 h, read-out: IC50 values for all the tested cell lines
[7] = MTT, cytotoxic profile assessed after 24 h

`COc1ccc2nc3c(c(N)c2c1)C1CC(C)=CC(C3)C1` (racemic) [(±)-1·HCl, rac-6-Methoxy-15-methyl-10-azatetracyclo[11.3.1.0^2,11.0^4,9]heptadeca-2(11),3,5,7,9,14-hexaen-3-amine hydrochloride] showed an IC50 (ACHN cell line; Homo sapiens, ACHN, 24 h) of 32.2 ± 0.72 µM, a logD ([1]; pH 7.4, read-out: logD7.4 (experimental)) of 1.73 and a logP ([1]; read-out: logP (experimental)) of 3.58. The pKa ([1]; read-out: pKa (experimental)) was 9.54, the Papp at 100 µM (in vitro) was 7.64 ± 0.22 ×10⁻⁶ cm/s and the “Ki'” value (hAChE; enzyme-substrate complex, inhibitor 1.00, 10.0 and 100 µM) was 3.67 ± 0.42 µM. For the same compound, the type of inhibition (hAChE; nonlinear regression, sum-of-squares F-test, p < 0.05) was “mixed type of inhibition”, the IC50 (HepG2 cell line; Homo sapiens, HepG2, 24 h) was 14.91 ± 0.11 µM and the IC50 (SH-SY5Y cell line; Homo sapiens, SH-SY5Y, 24 h) was 17.84 ± 0.09 µM.

Compound `CC1=CC2Cc3nc4cc(Cl)ccc4c(N)c3C(C1)C2` (racemic) [(±)-HupY·HCl, rac-7-Chloro-15-methyl-10-azatetracyclo[11.3.1.0^2,11.0^4,9]heptadeca-2(11),3,5,7,9,14-hexaen-3-amine hydrochloride] has an IC50 [2] of 0.358 ± 0.025 µM, an IC50 (ACHN cell line; Homo sapiens, ACHN, 24 h) of 24.6 ± 0.32 µM and a Papp (in vitro) of 5.89 ± 0.36 ×10⁻⁶ cm/s. The IC50 (HepG2 cell line; Homo sapiens, HepG2, 24 h) was 15.9 ± 1.17 µM and the IC50 (SH-SY5Y cell line; Homo sapiens, SH-SY5Y, 24 h) was 17.5 ± 0.44 µM.

In the case of `Nc1c2c(nc3cc(Cl)ccc13)CCCC2` [6-chlorotacrine], the “Pe ± SEM” value [3] is given as 5.00 ± 0.45 ^c 10^−6 cm·s^−1, the IC50 (ACHN cell line; [7]) is given as 55.1 ± 1.76 µM and the IC50 (HepG2 cell line) is given as 43.2 ± 1.17 µM. It also gave an IC50 (SH-SY5Y cell line; [7]) of 50.4 ± 1.28 µM.

In the case of `CC1=C[C@H]2Cc3nc4cc(Cl)ccc4c(N)c3[C@@H](C1)C2` [(+)-HupY], the IC50 (hBChE) is listed as 0.153 µM.

For `CC1=C[C@@H]2Cc3nc4cc(Cl)ccc4c(N)c3[C@H](C1)C2` [(−)-HupY], the IC50 (hBChE) is listed as 0.247 µM.

In the case of `CO/N=C(\C(=O)N[C@@H]1C(=O)N2C(C(=O)O)=C(COC(N)=O)CS[C@H]12)c1ccco1` [Cefuroxim, cefuroxime], the “Pe ± SEM” value [4] is reported as 2.70 ± 0.1 10^−6 cm·s^−1.

For `COc1ccc2nc3c(c(N)c2c1)CCCC3` [Compound 7-MEOTA, 7-methoxytacrine], the IC50 (ACHN cell line; Homo sapiens, ACHN, 24 h) was 49.3 ± 2.69 µM, the Papp (in vitro) was 6.5 ± 1.85 ×10⁻⁶ cm/s and the IC50 (HepG2 cell line; Homo sapiens, HepG2, 24 h) was 44.4 ± 3.35 µM. It also gave an IC50 (SH-SY5Y cell line; Homo sapiens, SH-SY5Y, 24 h) of 26.8 ± 1.04 µM.

In the case of `CCC1=CC2Cc3nc4cc(Cl)ccc4c(N)c3[C@@H](C1)C2` [HupX], the “AChE inhibition potency relative to the parent structures” value (AChE) is given as “more than 100 times”.

In the case of `CC1=CC2Cc3nc4cc(Cl)ccc4c(N)c3C(C1)C2` (centres unmarked) [HupY], the “survival of pretreated mice” value [5] is listed as “increased the survival”.

For `CN1C(C(=O)Nc2ccccn2)=C(O)c2ccccc2S1(=O)=O` [Piroxicam, piroxicam], the “Pe ± SEM” value [4] was 2.20 ± 0.15 10^−6 cm·s^−1.

In the case of `Nc1c2c(nc3ccccc13)CCCC2` [THA, 1,2,3,4-tetrahydro-9-aminoacridine], the IC50 [6] is listed as 120 to 168 µM, the “Pe ± SEM” value [3] is listed as 5.30 ± 0.20 ^c 10^−6 cm·s^−1 and the IC50 (ACHN cell line; Homo sapiens, ACHN, 24 h) is listed as 155.2 ± 0.67 µM. The IC50 (SH-SY5Y cell line; Homo sapiens, SH-SY5Y, 24 h) was 121 ± 1.97 µM.
